Laboratory results reported in ChEMBL document CHEMBL1201862, “PubChem BioAssay data set” (2004).
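All cell lines were grown in 96-well plates and treated with compound for 48 hours. GI50 is the concentration that inhibits growth by half.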 Activity calls are given as the source filed them. Rule as the data show it: active = GI50 up to about 1.1 µM and inactive = higher.

Assays:
Assay in all cases: NCI anticancer screen, dose series, 48 h
786-0 = system: 786-0
A498 = system: A498
A549 = system: A549
ACHN = system: ACHN
BT-549 = system: BT-549
CAKI-1 = system: CAKI-1
CCRF-CEM = system: CCRF-CEM
COLO 205 = system: COLO 205
DU-145 = system: DU-145
EKVX = system: EKVX
HCC 2998 = system: HCC 2998
HCT-116 = system: HCT-116
HCT-15 = system: HCT-15
HL-60 = system: HL-60
HOP-62 = system: HOP-62
HOP-92 = system: HOP-92
HT-29 = system: HT-29
Hs-578T = system: Hs-578T
IGROV-1 = system: IGROV-1
K562 = system: K562
KM12 = system: KM12
LOX IMVI = system: LOX IMVI
M14 = system: M14
MCF7 = system: MCF7
MDA-MB-231 = system: MDA-MB-231
MDA-MB-435 = system: MDA-MB-435
MDA-N = system: MDA-N
MOLT-4 = system: MOLT-4
Malme-3M = system: Malme-3M
NCI-H226 = system: NCI-H226
NCI-H23 = system: NCI-H23
NCI-H460 = system: NCI-H460
NCI-H522 = system: NCI-H522
NCI/ADR-RES = system: NCI/ADR-RES
OVCAR-3 = system: OVCAR-3
OVCAR-4 = system: OVCAR-4
OVCAR-5 = system: OVCAR-5
OVCAR-8 = system: OVCAR-8
PC-3 = system: PC-3
RPMI-8226 = system: RPMI-8226
RXF 393 = system: RXF 393
SF-268 = system: SF-268
SF-295 = system: SF-295
SF-539 = system: SF-539
SK-MEL-28 = system: SK-MEL-28
SK-MEL-2 = system: SK-MEL-2
SK-MEL-5 = system: SK-MEL-5
SK-OV-3 = system: SK-OV-3
SN12C = system: SN12C
SNB-19 = system: SNB-19
SNB-75 = system: SNB-75
SR = system: SR
SW-620 = system: SW-620
T47D = system: T47D
TK-10 = system: TK-10
U-251 = system: U-251
UACC-257 = system: UACC-257
UACC-62 = system: UACC-62
UO-31 = system: UO-31
DMS-114 = system: DMS-114
DMS-273 = system: DMS-273
M19-MEL = system: M19-MEL

SMILES: c1ccc([P+](Cc2ccc(C[P+](c3ccccc3)(c3ccccc3)c3ccccc3)s2)(c2ccccc2)c2ccccc2)cc1
- GI50 (786-0): > 100 µM (inactive)
- GI50 (A498): > 100 µM (inactive)
- GI50 (A549): > 100 µM (inactive)
- GI50 (ACHN): > 100 µM (inactive)
- GI50 (BT-549): > 100 µM (inactive)
- GI50 (CAKI-1): > 100 µM (inactive)
- GI50 (CCRF-CEM): > 100 µM (inactive)
- GI50 (COLO 205): > 100 µM (inactive)
- GI50 (DU-145): > 100 µM (inactive)
- GI50 (EKVX): > 100 µM (inactive)
- GI50 (HCC 2998): > 100 µM (inactive)
- GI50 (HCT-116): > 100 µM (inactive)
- GI50 (HCT-15): > 100 µM
- GI50 (HL-60): > 100 µM (inactive)
- GI50 (HOP-62): > 100 µM (inactive)
- GI50 (HOP-92): > 100 µM (inactive)
- GI50 (HT-29): > 100 µM (inactive)
- GI50 (Hs-578T): > 100 µM (inactive)
- GI50 (IGROV-1): > 100 µM (inactive)
- GI50 (K562): > 100 µM (inactive)
- GI50 (KM12): > 100 µM (inactive)
- GI50 (LOX IMVI): > 100 µM (inactive)
- GI50 (M14): > 100 µM (inactive)
- GI50 (MCF7): > 100 µM (inactive)
- GI50 (MDA-MB-231): > 100 µM (inactive)
- GI50 (MDA-MB-435): > 100 µM (inactive)
- GI50 (MDA-N): > 100 µM (inactive)
- GI50 (MOLT-4): > 100 µM (inactive)
- GI50 (Malme-3M): > 100 µM (inactive)
- GI50 (NCI-H226): > 100 µM (inactive)
- GI50 (NCI-H23): > 100 µM (inactive)
- GI50 (NCI-H460): > 100 µM (inactive)
- GI50 (NCI-H522): > 100 µM (inactive)
- GI50 (NCI/ADR-RES): > 100 µM (inactive)
- GI50 (OVCAR-3): > 100 µM (inactive)
- GI50 (OVCAR-4): > 100 µM (inactive)
- GI50 (OVCAR-5): > 100 µM (inactive)
- GI50 (OVCAR-8): > 100 µM (inactive)
- GI50 (PC-3): > 100 µM (inactive)
- GI50 (RPMI-8226): > 100 µM (inactive)
- GI50 (RXF 393): > 100 µM (inactive)
- GI50 (SF-268): > 100 µM (inactive)
- GI50 (SF-295): > 100 µM (inactive)
- GI50 (SF-539): > 100 µM (inactive)
- GI50 (SK-MEL-28): > 100 µM (inactive)
- GI50 (SK-MEL-2): > 100 µM (inactive)
- GI50 (SK-MEL-5): > 100 µM (inactive)
- GI50 (SK-OV-3): > 100 µM (inactive)
- GI50 (SN12C): > 100 µM (inactive)
- GI50 (SNB-19): > 100 µM (inactive)
- GI50 (SNB-75): > 100 µM (inactive)
- GI50 (SR): > 100 µM (inactive)
- GI50 (SW-620): > 100 µM (inactive)
- GI50 (T47D): > 100 µM (inactive)
- GI50 (TK-10): > 100 µM (inactive)
- GI50 (U-251): > 100 µM (inactive)
- GI50 (UACC-257): > 100 µM (inactive)
- GI50 (UACC-62): > 100 µM (inactive)
- GI50 (UO-31): > 100 µM (inactive)

SMILES: O=C1N[C@@H]2CCC[C@@H]2[C@@H]1c1ccc(Cl)cc1
- GI50 (A549): > 100 µM (inactive)
- GI50 (CAKI-1): > 100 µM (inactive)
- GI50 (CCRF-CEM): > 100 µM (inactive)
- GI50 (COLO 205): > 100 µM (inactive)
- GI50 (DMS-114): 70 µM (inactive)
- GI50 (DMS-273): > 100 µM (inactive)
- GI50 (EKVX): > 100 µM (inactive)
- GI50 (HCT-15): > 100 µM
- GI50 (HL-60): > 100 µM (inactive)
- GI50 (HT-29): > 100 µM (inactive)
- GI50 (IGROV-1): > 100 µM (inactive)
- GI50 (K562): > 100 µM (inactive)
- GI50 (KM12): > 100 µM (inactive)
- GI50 (LOX IMVI): > 100 µM (inactive)
- GI50 (M14): > 100 µM (inactive)
- GI50 (M19-MEL): > 100 µM (inactive)
- GI50 (MOLT-4): > 100 µM (inactive)
- GI50 (NCI-H226): 87.9 µM (inactive)
- GI50 (NCI-H23): > 100 µM (inactive)
- GI50 (NCI-H522): > 100 µM (inactive)
- GI50 (OVCAR-3): > 100 µM (inactive)
- GI50 (OVCAR-8): > 100 µM (inactive)
- GI50 (RPMI-8226): > 100 µM (inactive)
- GI50 (RXF 393): > 100 µM (inactive)
- GI50 (SF-268): > 100 µM (inactive)
- GI50 (SF-295): > 100 µM (inactive)
- GI50 (SF-539): > 100 µM (inactive)
- GI50 (SK-MEL-28): > 100 µM (inactive)
- GI50 (SK-MEL-5): > 100 µM (inactive)
- GI50 (SK-OV-3): > 100 µM (inactive)
- GI50 (SN12C): > 100 µM (inactive)
- GI50 (SNB-19): > 100 µM (inactive)
- GI50 (SNB-75): > 100 µM (inactive)
- GI50 (SW-620): > 100 µM (inactive)
- GI50 (TK-10): > 100 µM (inactive)
- GI50 (UACC-257): > 100 µM (inactive)
- GI50 (UACC-62): > 100 µM (inactive)
- GI50 (UO-31): 65.2 µM (inactive)

SMILES: COCn1c(C)c(C)c2c(=O)oc(=O)[nH]c21
- GI50 (786-0): > 100 µM (inactive)
- GI50 (A498): > 100 µM (inactive)
- GI50 (A549): > 100 µM (inactive)
- GI50 (ACHN): > 100 µM (inactive)
- GI50 (BT-549): > 100 µM (inactive)
- GI50 (CAKI-1): 8.24 µM (inactive)
- GI50 (CCRF-CEM): > 100 µM (inactive)
- GI50 (COLO 205): > 100 µM (inactive)
- GI50 (DU-145): > 100 µM (inactive)
- GI50 (EKVX): > 100 µM (inactive)
- GI50 (HCC 2998): > 100 µM (inactive)
- GI50 (HCT-116): > 100 µM (inactive)
- GI50 (HCT-15): > 100 µM
- GI50 (HL-60): 54.8 µM (inactive)
- GI50 (HOP-62): > 100 µM (inactive)
- GI50 (HOP-92): > 100 µM (inactive)
- GI50 (HT-29): > 100 µM (inactive)
- GI50 (Hs-578T): > 100 µM (inactive)
- GI50 (IGROV-1): > 100 µM (inactive)
- GI50 (K562): > 100 µM (inactive)
- GI50 (KM12): > 100 µM (inactive)
- GI50 (LOX IMVI): > 100 µM (inactive)
- GI50 (M14): > 100 µM (inactive)
- GI50 (MCF7): > 100 µM (inactive)
- GI50 (MDA-MB-231): > 100 µM (inactive)
- GI50 (MDA-MB-435): > 100 µM (inactive)
- GI50 (MDA-N): > 100 µM (inactive)
- GI50 (MOLT-4): > 100 µM (inactive)
- GI50 (Malme-3M): > 100 µM (inactive)
- GI50 (NCI-H226): > 100 µM (inactive)
- GI50 (NCI-H23): > 100 µM (inactive)
- GI50 (NCI-H460): > 100 µM (inactive)
- GI50 (NCI-H522): > 100 µM (inactive)
- GI50 (NCI/ADR-RES): > 100 µM (inactive)
- GI50 (OVCAR-4): > 100 µM (inactive)
- GI50 (OVCAR-5): > 100 µM (inactive)
- GI50 (OVCAR-8): > 100 µM (inactive)
- GI50 (PC-3): > 100 µM (inactive)
- GI50 (RPMI-8226): > 100 µM (inactive)
- GI50 (RXF 393): > 100 µM (inactive)
- GI50 (SF-268): > 100 µM (inactive)
- GI50 (SF-295): > 100 µM (inactive)
- GI50 (SF-539): > 100 µM (inactive)
- GI50 (SK-MEL-28): > 100 µM (inactive)
- GI50 (SK-MEL-2): > 100 µM (inactive)
- GI50 (SK-MEL-5): > 100 µM (inactive)
- GI50 (SK-OV-3): > 100 µM (inactive)
- GI50 (SN12C): > 100 µM (inactive)
- GI50 (SNB-19): > 100 µM (inactive)
- GI50 (SNB-75): > 100 µM (inactive)
- GI50 (SR): > 100 µM (inactive)
- GI50 (SW-620): > 100 µM (inactive)
- GI50 (T47D): > 100 µM (inactive)
- GI50 (TK-10): > 100 µM (inactive)
- GI50 (U-251): > 100 µM (inactive)
- GI50 (UACC-257): > 100 µM (inactive)
- GI50 (UACC-62): > 100 µM (inactive)
- GI50 (UO-31): > 100 µM (inactive)
